Test results published in patent US4124578A, “Antiovulatory polypeptides” (American Home Products Corporation, priority 1978, dated 1978).
Non-standard residues stand in square brackets, D forms with d. Residues, ends and D or L forms follow the SMILES beside them. pGlu = O=C1CC[C@@H](C(=O)O)N1

Legend:
[1] = CNS depression noted during the anti-ovulatory test; assay type: in vivo, rat; settings: at the anti-ovulatory dose (6 mg., subcutaneous in oil), female rats
Protocol: (§1) The rats are sacrificed the next morning (estrus), and the number of animals ovulating and the number of ova identified under a disecting microscope are recorded. The absence of, or a significant decrease in, the number of ova is the criterion for an anti-ovulary effect.

[2] = tested on: spontaneous ovulation; assay: Inhibition of spontaneous ovulation in female rats; assay type: in vivo, rat; settings: subcutaneous injections in oil on afternoon of proestrus, adult female rats; for Number of Ovulating Rats: ovulating/total
Protocol: as §1

[3] = tested on: luteinizing hormone (LH) release; settings: in vivo, rat; cited from earlier work
[4] = tested on: Follicle stimulating hormone (FSH) release; settings: in vivo, rat; cited from earlier work

Row | Compound | % Inhibition of Ovulation ([2]; Dose 6 mg.) [%] | Number of Ovulating Rats ([2]; Dose 6 mg.) | release of luteinizing hormone (LH) [3] | also measured
1 | CCNC(=O)[C@@H]1CCCN1C(=O)[C@H](CCCNC(=N)N)NC(=O)[C@@H](CC(C)C)NC(=O)C(C)(C)NC(=O)CNC(=O)[C@@H](Cc1c[nH]c2ccccc12)NC(=O)[C@H](CCCNC(=N)N)NC(=O)[C@H](Cc1ccc(O)cc1)NC(=O)[C@@H]1CCC(=O)N1 [Example 3, L-(5-Oxoprolyl)-L-tyrosyl-L-arginyl-D-tryptophylglycyl-(2-methylalanyl)-D-leucyl-L-arginyl-N-ethyl-L-prolinamide] (HELM PEPTIDE1{[Glp].Y.R.[dW].G.[Aib].[dL].R.P.[CCN[*:1]]}$$$$V2.0) |  |  |  | CNS depression [1]: CNS depression is noted at the anti-ovulatory dose
2 | CCNC(=O)[C@@H]1CCCN1C(=O)[C@H](CCCNC(=N)N)NC(=O)[C@H](CC(C)C)NC(=O)[C@@H](C)NC(=O)CNC(=O)[C@H](Cc1c[nH]c2ccccc12)NC(=O)[C@H](CCCNC(=N)N)NC(=O)[C@H](Cc1ccc(O)cc1)NC(=O)[C@@H]1CCC(=O)N1 [Example 5, L-(5-Oxoprolyl)-L-tyrosyl-L-arginyl-L-tryptophylglycyl-D-alanyl-L-leucyl-L-arginyl-N-ethyl-L-prolinamide] (HELM PEPTIDE1{[Glp].Y.R.W.G.[dA].L.R.P.[CCN[*:1]]}$$$$V2.0) | 60 | 2/5 |  | 
3 | CC(C)C[C@H](NC(=O)[C@@H](C)NC(=O)CNC(=O)[C@H](Cc1c[nH]c2ccccc12)NC(=O)[C@H](CCCNC(=N)N)NC(=O)[C@H](Cc1ccc(O)cc1)NC(=O)[C@@H]1CCC(=O)N1)C(=O)N[C@@H](CCCNC(=N)N)C(=O)N1CCC[C@H]1C(N)=O [Example 7, L-(5-Oxoprolyl)-L-tyrosyl-L-arginyl-L-tryptophylglycyl-D-alanyl-L-leucyl-L-arginyl-L-prolyl amide] (HELM PEPTIDE1{[Glp].Y.R.W.G.[dA].L.R.P.[am]}$$$$V2.0) |  |  |  | % Inhibition of Ovulation ([2]; Dose 0.5 mg.): 50%; Number of Ovulating Rats ([2]; Dose 0.5 mg.): 3/6
4 | CCNC(=O)[C@@H]1CCCN1C(=O)[C@H](Cc1c[nH]c2ccccc12)NC(=O)[C@H](CCCNC(=N)N)NC(=O)[C@H](Cc1ccc(O)cc1)NC(=O)[C@@H]1CCC(=O)N1 [Example 9, L-(5-Oxoprolyl)-L-tyrosyl-L-arginyl-L-tryptophyl-N-ethyl-2-prolin amide] (HELM PEPTIDE1{[Glp].Y.R.W.P.[CCN[*:1]]}$$$$V2.0) | 50 | 2/4 |  | 
5 | [pGlu]YRW-NH2 |  |  | release luteinizing hormone (LH) | Follicle stimulating hormone (FSH) release [4]: unaffected
6 | [pGlu]YRWGHL-NH2 |  |  | release LH | 
